Source: patent publication US9359338B2, “Cyclopropanecarboxamido-substitute aromatic compounds as anti-tumor agents” (Crown Bioscience Inc. (Taiwan), priority 2012, dated 2016)
Where two headings read alike, the source gives them in different places.

Columns and labels:
pERK in MDA-MB-231 cells = assay: Inhibitory activity at pERK (In Cell Western, MDA-MB-231 cells); type: cell-based
Description: Inhibitory Activity of Compounds at pERK
When the cells reach 80% confluency, collect cells by trypsinization and centrifugation at 800 rpm for 3 minutes. Resuspend cells with appropriate volume of medium and count cell numbers. Adjust cell concentration to 70000 cells/mL, and split 100 μL cell suspension per well into 96-well plates. Transfer the plates into cell culture incubator (37° C., 5% CO2) and incubate cells overnight. Discard the medium, wash with PBS once, Prepare compound serial dilutions in culture medium with total 8 compound concentrations at 3-fold serial dilutions (the final top concentration starts from 30 μM). Dispense 75 μL DMEM medium (with 0.1% BSA) and 25 μL of each test compound dilution into corresponding wells with DMSO at 0.3% final concentration. Continue incubating cells in cell culture incubator for additional 2 hrs at 37° C., 5% CO2. Discard culture medium, and wash cells once with PBS. Add 100 μL of 4% formaldehyde solution to each well and fix for 20 min. Discard the formaldehyde, then add 100 μL ice-cold 100% methanol at 4° C. for 20 min. Discard methanol, wash with PBS three times. Add to each well 100 μL of 2% BSA solution, seal for 30 min at room temperature. Discard the BSA solution, add to each well 50 μL of the 1st antibody solution (prepared with 2% BSA, 1:250 dilution), incubate at 4° C. overnight. Discard the 1^St antibody solution, wash with PBS four times. Add to each well […] the 2nd antibody solution (prepared with 1% BSA, 1:1000 dilution), incubate at room temperature for 1 hr. Discard the 2nd antibody solution, wash with PBS four times, add to each well 100 μL PI solution (1.5 μM), incubate at room temperature for 30 min. Use Acumen (TPP) to measure the fluorescence. • [Samples]: Compounds in the examples and sorafenib (positive control) • [Data Analysis]: Use CBIS data analysis software to calculate IC50 values

PLC-PRF-5 cells = assay: Inhibition of proliferation of PLC-PRF-5 cells (ATPlite); type: cell-based
Source text: Inhibitory Activity of Compounds to the Proliferation of PLC-PRF-5 Cells
• [experimental Method]: Use PerKinElmer's ATPlite™ Luminescence ATP Detection Assay System to evaluate the inhibitory activity of compounds to the proliferation of PLC-PRF-5 cells. • [Instruments]: ENVISION plate reader (PerKinElmer) and centrifuge (Thermo Scientific, Sorvall ST16R) • [material]: PLC-PRF-5 cells (ATCC), 96-well plate (Nunc, #165305), DMEM medium (Gibco, #11965-092), PBS (Invitrogen, #10010023), fetal bovine serum (Gibco, #16000044), DMSO (Sigma, #D2650), ATPlite™ Luminescence ATP Detection Assay System (PerkinElmer, #6016949), purified water (Millipore, type: Milli-Q). • [Protocol]: Grow PLC-PRF-5 cells in DMEM supplemented with 10% FBS. When the cells reach 80% confluency, collect cells by trypsinization and centrifugation at 800 rpm for 3 min. Resuspend cells with appropriate volume of medium and count cell numbers. Adjust cell concentration to 50000 cells/mL, and split 160 μL cell suspension per well into 96-well plates. Transfer the plates into cell culture incubator (37° C., 5% CO2) and incubate cells for 2 hrs. Prepare compound serial dilutions in culture medium with total 8 compound concentrations at 3-fold serial dilutions (the final top concentration starts from 30 μM). Dispense 40 μL of each test compound dilution into corresponding wells with DMSO at 0.3% final concentration. Continue incubating cells in cell culture incubator for additional 96 hrs at 37° C., 5% CO2. Discard culture medium, and wash cells once with PBS. Add 50 μL cell lysis buffer per well and shake plates for 5 min at room temperature to ensure complete lysis of cells. Then add 50 μL of substrate solution and shake plates for 1 min at room temperature. Allow the plates to incubate at room temperature for 5 min, followed by recording the luminescence signals using Envision, and subsequent data analysis. • [Samples]: Compounds in the examples and Sorafenib (positive control) • [Data analysis]: Use CBIS data analysis software to calculate IC50 values

KDR kinase (790-1356 AA) = KDR kinase (790-1356 AA) (Homo sapiens (Human), UniProt P35968); assay: Inhibitory activity at KDR kinase (Lance Ultra Ulight-TK assay); type: biochemical
Sequence of KDR kinase (790-1356 AA) (P35968 790-1356): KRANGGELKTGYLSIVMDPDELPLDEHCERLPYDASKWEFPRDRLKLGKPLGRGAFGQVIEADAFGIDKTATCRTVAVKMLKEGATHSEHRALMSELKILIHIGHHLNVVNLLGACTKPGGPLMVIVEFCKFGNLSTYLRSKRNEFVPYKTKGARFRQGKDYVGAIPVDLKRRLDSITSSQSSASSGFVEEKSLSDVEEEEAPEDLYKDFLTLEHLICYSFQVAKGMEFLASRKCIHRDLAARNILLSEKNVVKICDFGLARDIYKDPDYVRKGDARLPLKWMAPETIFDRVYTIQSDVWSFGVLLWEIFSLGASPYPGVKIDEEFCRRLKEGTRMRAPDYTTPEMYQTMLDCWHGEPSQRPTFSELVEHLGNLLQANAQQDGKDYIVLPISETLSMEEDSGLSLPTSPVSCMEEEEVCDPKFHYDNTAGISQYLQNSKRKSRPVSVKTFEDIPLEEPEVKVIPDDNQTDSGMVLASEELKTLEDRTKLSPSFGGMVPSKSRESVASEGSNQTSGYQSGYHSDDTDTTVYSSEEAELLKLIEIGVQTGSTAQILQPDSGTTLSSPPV
Description: Inhibitory Activity of Compounds at KDR Kinase
• [Experimental method]: Use Lance@Ultra Ulight™-TK assay kit from PerKinElmer to evaluate the inhibitory activity of compounds at KDR kinase. • [Instrument]: PerKinElmer's ENVISION plate reader • [Materials]: Optiplate-384 well plate (PerKinElmer), kinase buffer (50 mM Hepes pH7.5, 0.25 mM EGTA, 2 mM DTT, 0.01% Tween 20, 10 mM Mg^2+, 0.5 mM Mn^2+), KDR kinase (790-1356 AA, Crown Bioscience), KDR kinase substrate (PerKinElmer catalogue # TRF0127-M), Lance@Eu-W1024-anti-phosphotyrosine (PT66) (PerKinElmer, catalogue #AD0068), ATP (Invitrogen), DMSO (Sigma, catalogue #34869), purified water (Millipore, type: Milli-Q). • [Study conditions]: Mix KDR (final concentration: 20 nM) and compound (final DMSO: 0.5%), pre-incubate for 20 min at 30° C.; then add ATP (final concentration: 90 μM) and the substrate (final concentration […]). React for 2 hrs at 30° C. After the reaction, add antibody and reaction for 60 min at 30° C. Read the plate (615 nm, 665 nm), calculate the ratio of the value at 665 nm vs 615 nm and analyze the data. • [Samples]: Compounds in the examples and Sorafenib (positive control) • [Data Analysis]: Use CBIS data analysis software to calculate IC50 values

[1] = Homo sapiens, MDA-MB-231, read-out: MDA-MB-231 pERK IC50
[2] = Homo sapiens, PLC-PRF-5, read-out: PLC-PRF-5 cell proliferation IC50
[3] = Homo sapiens, MDA-MB-231, MDA-MB-231 cells, read-out: MDA-MB-231 pERK IC50
[4] = Homo sapiens, PLC-PRF-5, PLC-PRF-5 cells, read-out: PLC-PRF-5 cell proliferation IC50

SMILES | IC50 (pERK in MDA-MB-231 cells; [1]) [nM] | IC50 (PLC-PRF-5 cells; [2]) [nM] | IC50 (KDR kinase (790-1356 AA)) [nM] | IC50 (pERK in MDA-MB-231 cells; [3]) [nM] | IC50 (PLC-PRF-5 cells; [4]) [nM] | IC50 (pERK in MDA-MB-231 cells; MDA-MB-231 cells, read-out: MDA-MB-231 pERK IC50) [nM] | IC50 (PLC-PRF-5 cells; PLC-PRF-5 cells, read-out: PLC-PRF-5 cell proliferation IC50) [nM]
Cc1cc(Oc2cc(NC(=O)C3CC3)ncn2)ccc1NC(=O)Nc1ccc(C#N)c(Cl)c1 [Exe. 086] | 226 | 19300 | 8.3 |  |  |  | 
CC(F)(F)c1cc(NC(=O)Nc2cc(F)cc(Oc3cc(NC(=O)C4CC4)ncn3)c2)ccc1Cl [Exe. 099] |  |  | 41 | 37 | 15000 |  | 
CC(c1cc(NC(=O)Nc2ccc(Oc3ccnc(NC(=O)C4CC4)c3)c(F)c2)cc(C(F)(F)F)c1)N1CCN(C)CC1 (centres unmarked) [Exe. 045] |  |  | 15.4 | 40 | 108 |  | 
O=C(Nc1ccc(F)c(C(F)(F)F)c1)Nc1ccc(Oc2cc(NC(=O)C3CC3)ncn2)cc1Cl [Exe. 089] |  |  | 15.2 | 19 | 6870 |  | 
O=C(Nc1cc(NC(=O)[C@@H]2CCCN2)cc(C(F)(F)F)c1)Nc1ccc(Oc2ccnc(NC(=O)C3CC3)c2)c(F)c1 [Exe. 240] |  |  | 19.1 | 27.2 | 1040 |  | 
Cc1cc(NC(=O)Nc2cccc(OC(F)(F)F)c2)ccc1Oc1cc(NC(=O)C2CC2)ncn1 [Exe. 113] |  |  | 8.1 | 54 | 781 |  | 
O=C(Nc1cccc(C(F)(F)F)c1)Nc1cnc(Oc2ccnc(NC(=O)C3CC3)c2)c(F)c1 [Exe. 201] |  |  | 11.4 | 326 | 239 |  | 
Cc1cc(Oc2cc(NC(=O)C3CC3)ncn2)ccc1NC(=O)Nc1cc(Cl)cc(C(F)(F)F)c1 [Exe. 075] |  |  | 13.1 | 420 | 20000 |  | 
COCC(=O)Nc1cc(NC(=O)Nc2ccc(Oc3ccnc(NC(=O)C4CC4)c3)c(F)c2)cc(C(F)(F)F)c1 [Exe. 043] |  |  | 18.1 | 30 | 604 |  | 
O=C(Nc1cc(F)cc(C(F)(F)F)c1)Nc1ccc(Oc2cc(NC(=O)C3CC3)ncn2)cc1Cl [Exe. 090] |  |  | 12.2 | 42 | 2800 |  | 
O=C(Nc1cccc(Oc2cc(NC(=O)C3CC3)ncn2)c1)Nc1cccc(OC(F)(F)F)c1 [Exe. 121] |  |  | 11.5 | 252 | > 30000 |  | 
Cc1cc(Oc2cc(NC(=O)C3CC3)ncn2)ccc1NC(=O)Nc1cc(C2CCN(C)CC2)cc(C(F)(F)F)c1 [Exe. 073] |  |  |  |  | 2970 |  | 
CN1CCC(Nc2cc(C(F)(F)F)cc(NC(=O)Nc3ccc(Oc4ccnc(NC(=O)C5CC5)c4)c(F)c3)n2)CC1 [Exe. 173] |  |  | 22.5 | 80 | 254 |  | 
Cc1ccc(Oc2ccnc(NC(=O)C3CC3)c2)cc1NC(=O)Nc1ccc(Cl)c(C(C)(F)F)c1 [Exe. 228] |  |  | 14.7 | 12 | 3330 |  | 
O=C(Nc1cncc(C(F)(F)F)c1)Nc1ccc(Oc2ccnc(NC(=O)C3CC3)c2)c(F)c1 [Exe. 169] |  |  | 14.6 | 43 | 340 |  | 
Cc1cc(NC(=O)Nc2ccc(Cl)c(C(C)(F)F)c2)cc(Oc2cc(NC(=O)C3CC3)ncn2)c1 [Exe. 096] |  |  | 624 | 28 | 21000 |  | 
Cc1cc(NC(=O)Nc2ccc(Cl)c(OC(F)(F)F)c2)ccc1Oc1cc(NC(=O)C2CC2)ncn1 [Exe. 114] |  |  | 9.8 | 37 | 4600 |  | 
CC(N)c1cc(NC(=O)Nc2ccc(Oc3ccnc(NC(=O)C4CC4)c3)c(F)c2)cc(C(F)(F)F)c1 (centres unmarked) [Exe. 068] |  |  | 15.7 | 8.4 | 325 |  | 
CC(C)N1CCN(c2cc(NC(=O)Nc3ccc(Oc4ccnc(NC(=O)C5CC5)c4)c(F)c3)cc(C(F)(F)F)c2)CC1 [Exe. 054] |  |  | 15.3 | 97.6 | 340 |  | 
Cc1cc(NC(=O)Nc2cccc(OC(F)(F)F)c2)cc(Oc2cc(NC(=O)C3CC3)ncn2)c1 [Exe. 095] |  |  | 434 | 82 | 19200 |  | 
O=C(Nc1cc(N2CCOCC2=O)cc(C(F)(F)F)c1)Nc1ccc(Oc2ccnc(NC(=O)C3CC3)c2)c(F)c1 [Exe. 171] |  |  | 12.4 | 30.2 | 1980 |  | 
Cc1cc(Oc2cc(NC(=O)C3CC3)ncn2)ncc1NC(=O)Nc1ccc(Cl)c(C(F)(F)F)c1 [Exe. 016] |  |  | 9.4 | 55 | 20100 |  | 
Cc1cc(Oc2ccnc(NC(=O)C3CC3)c2)ccc1NC(=O)Nc1cc(F)cc(C(C)(F)F)c1 [Exe. 197] |  |  | 5.7 | 14.2 | 3290 |  | 
N#Cc1ccc(NC(=O)Nc2ccc(Oc3ccnc(NC(=O)C4CC4)c3)cc2F)cc1C(F)(F)F [Exe. 206] | 8.2 | 1650 | 14.6 |  |  |  | 
CC(F)(F)c1cc(F)cc(NC(=O)Nc2ccc(Oc3ccnc(NC(=O)C4CC4)c3)c(F)c2)c1 [Exe. 179] |  |  | 10.5 | 51.5 | 206 |  | 
CN(c1ccc(NC(=O)Nc2cccc(C(F)(F)F)c2)c(F)c1)c1cc(NC(=O)C2CC2)ncn1 [Exe. 123] |  |  | 7.4 | 703 | 8380 |  | 
Cc1cc(NC(=O)Nc2ccc(Cl)c(C(C)(F)F)c2)ccc1Oc1cc(NC(=O)C2CC2)ncn1 [Exe. 117] |  |  | 12 | 27 | 2930 |  | 
CC(F)(F)c1ccc(F)c(NC(=O)Nc2cnc(Oc3ccnc(NC(=O)C4CC4)c3)c(F)c2)c1 [Exe. 202] |  |  | 12.7 | 246 | 66 |  | 
CC(c1cc(NC(=O)Nc2ccc(Oc3ccnc(NC(=O)C4CC4)c3)c(F)c2)cc(C(F)(F)F)c1)N1CCNCC1 (centres unmarked) [Exe. 067, N-[4-[2-fluoro-4-[[3-(1-piperazin-1-ylethyl)-5-(trifluoromethyl)phenyl]carbamoylamino]phenoxy]-2-pyridyl]cyclopropanecarboxamide] |  |  |  | 75.9 | 235 |  | 
O=C(Nc1ccc(Oc2ccnc(NC(=O)C3CC3)c2)c(F)c1)Nc1ccc(Cl)c(C(F)(F)F)c1 [Exe. 027] |  |  |  |  |  | 66.5 | 2390
